Measured values from BindingDB's records for doi:10.1016/0960-894X(96)00057-1 (1996).
pIC50: −log10 of the molar value.

What was measured:
[1] = Compound was tested for inhibition of HL60 cell adhesion to recombinant P-selectin-IgG fusion protein obtained from transfected COS cells
[2] = as above; remark: listed apart in the source

pIC50 [1]	pIC50 [2]	Structure (SMILES)
4.59		CC(=O)N[C@H]1[C@H]([C@H](O)[C@H](O)CO)O[C@@](O[C@@H]2[C@H](O)[C@H](O[C@H]3[C@H](O[C@@H]4O[C@@H](C)[C@@H](O)[C@H](O)[C@@H]4O)[C@H](NC(C)=O)[C@H](NC(=O)[C@H](C)NC(=O)[C@H](CC(=O)O)NC(=O)CNC(=O)[C@@H](N)CCCN=C(N)N)O[C@H]3CO)O[C@@H](CO)[C@@H]2O)(C(=O)O)C[C@H]1O
	3.42	CC(=O)N[C@@H]1[C@H](OCCCCCCNC(=O)[C@H]2CC[C@H](CN3C(=O)C=CC3=O)CC2)O[C@@H](CO)[C@@H](O[C@@H]2O[C@@H](CO)[C@H](O)[C@H](O[C@]3(C(=O)O)C[C@@H](O)[C@@H](NC(C)=O)[C@H]([C@H](O)[C@H](O)CO)O3)[C@@H]2O)[C@@H]1O[C@@H]1O[C@@H](C)[C@@H](O)[C@H](O)[C@@H]1O [Sialyl-LewisX Conjugate]
	2.82	CC(=O)N[C@@H]1[C@H](OCCCCCCNC(=O)CCC(=O)O)O[C@@H](CO)[C@@H](O[C@@H]2O[C@@H](CO)[C@H](O)[C@H](O[C@]3(C(=O)O)C[C@@H](O)[C@@H](NC(C)=O)[C@H]([C@H](O)[C@H](O)CO)O3)[C@@H]2O)[C@@H]1O[C@@H]1O[C@@H](C)[C@@H](O)[C@H](O)[C@@H]1O [Sialyl-LewisX Conjugate]
3.05		CC(=O)N[C@@H]1[C@H](OCCCCCC/N=C(S)/N=C2\C=CC(=C3c4ccc(O)cc4Oc4cc(O)ccc43)C(C(=O)O)=C2)O[C@@H](CO)[C@@H](O[C@@H]2O[C@@H](CO)[C@H](O)[C@H](O[C@]3(C(=O)O)C[C@@H](O)[C@@H](NC(C)=O)[C@H]([C@H](O)[C@H](O)CO)O3)[C@@H]2O)[C@@H]1O[C@@H]1O[C@@H](C)[C@@H](O)[C@H](O)[C@@H]1O
